For the assay, the target named is Xanthine dehydrogenase/oxidase (Homo sapiens, UniProt P47989). The experiment in a line: xanthine oxidase activity: Xanthine oxidase inhibition was determined using a standard fluorescence-based assay for xanthine oxidase activity (McHale A, Grimes H, Coughlan M P: Int J Biochem. 10:317-9, 1979) with minor variations. […] Experiments on test compounds were performed in triplicate in multi-well plates using 10 concentrations of each compound that ranged over a 3-fold dilution.

In ChEMBL document CHEMBL5725756, “Bifunctional compounds and use for reducing uric acid levels” (2018) one finds IC50 data, which are given here for 1 compound.

Sequence of Xanthine dehydrogenase/oxidase (P47989 whole entry): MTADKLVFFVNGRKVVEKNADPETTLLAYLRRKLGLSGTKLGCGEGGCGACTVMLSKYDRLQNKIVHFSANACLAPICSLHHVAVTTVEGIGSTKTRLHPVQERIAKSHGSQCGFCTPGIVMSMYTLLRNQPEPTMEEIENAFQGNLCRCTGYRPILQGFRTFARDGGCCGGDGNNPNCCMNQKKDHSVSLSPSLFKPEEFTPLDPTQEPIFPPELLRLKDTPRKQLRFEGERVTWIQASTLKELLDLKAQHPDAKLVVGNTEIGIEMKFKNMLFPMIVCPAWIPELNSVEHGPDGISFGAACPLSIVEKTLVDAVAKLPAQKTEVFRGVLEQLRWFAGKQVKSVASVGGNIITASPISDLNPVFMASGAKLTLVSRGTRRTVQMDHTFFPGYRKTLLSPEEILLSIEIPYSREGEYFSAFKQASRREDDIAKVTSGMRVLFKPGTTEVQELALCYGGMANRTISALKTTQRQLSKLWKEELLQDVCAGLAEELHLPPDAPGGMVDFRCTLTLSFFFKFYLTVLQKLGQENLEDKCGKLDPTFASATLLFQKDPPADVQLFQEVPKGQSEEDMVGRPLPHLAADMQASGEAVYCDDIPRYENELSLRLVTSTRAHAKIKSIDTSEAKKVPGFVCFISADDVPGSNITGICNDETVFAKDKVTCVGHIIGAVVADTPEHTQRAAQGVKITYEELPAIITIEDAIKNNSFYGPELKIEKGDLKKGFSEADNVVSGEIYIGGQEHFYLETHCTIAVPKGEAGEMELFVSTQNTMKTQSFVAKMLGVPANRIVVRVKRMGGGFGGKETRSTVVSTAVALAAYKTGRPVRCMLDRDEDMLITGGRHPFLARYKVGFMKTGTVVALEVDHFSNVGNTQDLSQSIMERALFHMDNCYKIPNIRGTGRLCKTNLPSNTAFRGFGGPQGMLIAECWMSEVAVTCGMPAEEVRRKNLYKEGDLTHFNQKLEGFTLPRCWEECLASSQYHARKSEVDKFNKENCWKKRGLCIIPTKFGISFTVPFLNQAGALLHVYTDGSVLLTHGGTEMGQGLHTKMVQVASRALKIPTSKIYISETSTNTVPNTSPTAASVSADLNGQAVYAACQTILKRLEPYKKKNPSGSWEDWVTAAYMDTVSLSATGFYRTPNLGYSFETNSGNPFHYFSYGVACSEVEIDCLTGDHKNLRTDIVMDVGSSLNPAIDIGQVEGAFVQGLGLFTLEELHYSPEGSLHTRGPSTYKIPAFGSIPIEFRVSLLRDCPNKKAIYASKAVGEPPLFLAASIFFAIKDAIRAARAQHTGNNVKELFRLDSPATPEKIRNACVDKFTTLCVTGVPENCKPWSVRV

In general, IC50 refers to the concentration needed to halve the response being measured. Higher therefore signals lower potency. In the case of `O=C(O)CSc1nnc(Br)n1-c1ccc(C2CC2)c2ccccc12`, the IC50 is > 300 µM.
